In a melting point compilation (Tetko et al.; mined from patent text by program, amines drawn as free bases though some values may be those of a salt) one finds melting point data, which are given here for 91 compounds.

Each structure is given as a SMILES string.

Turning to `Clc1ccc2c(-n3cc(Cl)cn3)ccnc2c1`, the melting point was in the range of 110 to 114 °C.
Regarding `COc1ccc(C(NCCC(c2ccccc2)c2ccccc2)c2cccc(Nc3c(N)c(=O)c3=O)c2)cc1` (stereo unspecified), the melting point lay within 132 to 134 °C.
Next, `Cc1cc(N)ccc1-c1ccccc1CO`: 108 to 112 °C; `Fc1ccccc1Cn1cnc2c(Nn3cccc3)ncnc21`: 204 to 206 °C; `Cn1c(=O)[nH]c2ccc(-c3cccc(Cl)c3)cc21`: 219 to 220 °C.
To `COc1cc(Nc2c(C#N)cnc3cc(/C=C/CCCCN4CCOCC4)c(OC)cc23)c(Cl)cc1Cl` belongs 99 to 100 °C; to `CC(C)(C)C(=O)Nc1ccc(Cl)cc1C(=O)C[C@H]1C(=O)OCN1C(=O)OCc1ccccc1`, 113 to 116 °C.
To `O=c1c(CCO)c(O)c2cccnc2n1-c1cccc([N+](=O)[O-])c1` belongs 244 to 245 °C; to `COC(=O)C[C@H](Br)C(N)=O`, 82 to 84 °C; to `S=c1[nH]cnn1C1CCc2ccccc2C1` (stereo unspecified), 200 °C.
Consider `CNC(=S)SCCC(=O)N1CCC[C@H]1C(=O)OC(C)(C)C`, for which the melting point is 129 to 130 °C.
With `COCCOCc1c(CN(C)CC(O)c2cccc(N)c2)sc2c(=O)c(C(=O)NCc3ccc(Cl)cc3)cn(C)c12` (stereo unspecified), the melting point lay within 128 to 131 °C.
`Cc1ccccc1Cn1cc(-c2cn(C3CC(O)C(CO)O3)c(=O)[nH]c2=O)nn1` (stereo unspecified) returned a melting point of 168 to 170 °C.
Next, `O=c1c2cc(F)ccc2nc(C(S)c2ncnc3[nH]cnc23)n1-c1ccccc1Cl` (stereo unspecified): 233 °C.
With `CCOC(=O)c1c(C)nn2ccc3c(c12)C(CC#N)CC3` (stereo unspecified), the melting point lay within 136 to 140 °C.
Next, `CCOC(=O)c1ccc(N=C(Nc2ccc(C(=O)OCC)cc2)c2ccccc2OC)cc1`: 163 to 164 °C; `CCCc1cc(Cl)c(O)c2c(C)c(Cc3ccc(OC)cc3)oc12`: 99 to 100 °C; `CC1(C)CCC(C)(C)c2cc(N)c(N)cc21`: 185 °C.
To `Cc1c(CCC(=O)O)cccc1C(=O)c1ccc(Cl)cc1` belongs 144 to 148 °C; to `CN(C)C1CCC(c2cc3ccccc3c(=O)[nH]2)CC1` (stereo unspecified), 256 to 258 °C.
Next, `CS(=O)(=O)CCOCCn1cnc2c(N)nc3ccccc3c21`: 145 to 148 °C; `Cn1cc(-c2cccc(C(F)(F)F)c2)c(=O)c(-c2ccccc2C(F)(F)F)c1`: 135 to 138 °C; `Cc1ccc(C)n1CCNC(=O)c1ccc(Cl)cc1`: 104 to 105 °C.
Consider `O=C1c2ccccc2C(=O)N1CCN1CCC(c2noc3cc(F)ccc23)CC1`, for which the melting point lay in the range of 143 to 145 °C.
Next, `CC(C)(C)OC(=O)N[C@@H](COS(C)(=O)=O)Cc1ccccc1`: 119 to 120 °C.
To `C=CCc1ccc(C(=O)CCC(=O)OC)cc1O` belongs 90 to 92.5 °C.
To `CCOC(=O)N1CCCSC1=C(C(C)=O)[N+](=O)[O-]` belongs 52 to 54 °C; to `COC(=O)Cc1ccccc1NC(=S)NN(C)C`, 130 to 131 °C.
In turn, `COc1cc(OCc2ccccn2)c(C=CC(=O)c2ccc(S(N)(=O)=O)cc2)cc1-c1cccs1` had a melting point of 188 to 189 °C.
To `COc1cccc2c1OCN(CCc1ccc(Cl)cc1)C2` belongs 87 to 88 °C; to `FC(F)(F)c1cc(C(F)(F)F)c2nc(N3CCN(c4ncccc4C(F)(F)F)CC3)[nH]c2c1`, 142 °C; to `CC(C(=O)NCC(F)(F)C(F)(F)F)C(=O)NC1C(=O)N(C)c2c(F)cccc2OC1C` (stereo unspecified), 126 to 134 °C.
As for `CCOC(=O)c1nc(NC)sc1-c1cn2ccc(C)cc2n1`, the melting point was in the range of 210 to 213 °C.
Consider `C=C(F)C(=O)Oc1ccc(C#N)cc1`, for which the melting point lay in the range of 78 to 79 °C.
To `CC1(C)C=C(c2ccccn2)c2ccccc2O1` belongs 80 to 82 °C; to `Cc1ccccc1CN(O)C(=O)C(C)(C)CCl`, 112 to 113 °C.
As to `CC1C(Cl)(Cl)C1(C)c1ccc(O)cc1` (stereo unspecified), the melting point fell in the range of 79 to 82 °C.
Compound `CC[Si](C)(C)NC(=O)c1ccc(N)cc1` gave a melting point of 126 to 127 °C.
In turn, `COC(=O)CCCc1cc2cc(C(F)(F)F)ccc2n1S(=O)(=O)c1ccc2ncsc2c1` yielded a melting point of 117 to 121 °C.
Next, `CN1CCN(Cc2nnc(S)n2Cc2cc(F)cc(F)c2)CC1`: 200 to 201 °C; `COc1ccccc1CN[C@H]1CCCN[C@H]1C1CCCCC1` (relative stereo): more than 225 °C; `Cc1cc(C)c(NC(=O)N(Cc2ccc3c(c2)-c2ccccc2-3)C2CCCCCC2)c(C)c1`: 123 to 124 °C.
With `COc1cc2c(cc1OC)CC(N(C)CCCN1CCc3cc4c(cc3CC1=O)OCCO4)CC2` (stereo unspecified), the melting point fell in the range of 152 to 157 °C.
In turn, `O=[N+]([O-])c1ccccc1CSc1nnnn1-c1ccccc1` gave a melting point of 158 to 161 °C.
The compound `CCc1c2n(c3ccccc13)C(=O)C(=Cc1ncn(C(c3ccccc3)(c3ccccc3)c3ccccc3)c1C)CC2` yielded a melting point of 217 to 220 °C.
To `Cn1c(C(F)(F)F)cc(=O)n(-c2c(F)cc(Cl)c3c2OC(C)(C)C3O)c1=O` (stereo unspecified) belongs 82 to 83 °C; to `O=CCCNC(=O)c1ccc[nH]1`, 88 to 90 °C.
To `Clc1cccc2c(CN3CC=C(CCc4ccccc4)CC3)n[nH]c12` belongs 171 to 172 °C; to `CCCCCCCCCCCCCCOCC(COCCCCCCCCCCCCCC)(CC(=O)N(C)C)CC(=O)N(C)C`, 52 to 54 °C; to `COC(=O)CCC(=O)Nc1ccc2c(=O)n3c(nc2c1)C(=Cc1ccccc1)CC3`, 288 to 291 °C.
Next, `Oc1ccc(Nc2nc(Cl)cc3ccccc23)cc1`: 170 °C; `Cc1nc(-c2ccccc2)nc(-c2cccc([N+](=O)[O-])c2)c1C(=O)NCCCl`: 199 to 200 °C.
In the case of `Cc1ccc(Cn2ccc(CN3CCC(c4ccccc4)(c4ccccc4)CC3)n2)cc1C`, the melting point is 139 to 140 °C.
To `O=C(N[C@H]1CC[C@H](CCN2CCC(c3cccc4c3CCO4)CC2)CC1)c1ccc(F)cc1` belongs 213 °C; to `CCOC(=O)C(=O)N(O)Cc1ccc2c(c1)Cc1ccccc1-2`, 130 to 131 °C; to `CC(=O)N1CCC(CNCc2ccc(C=CC(=O)Nc3ccc(-c4ccc(Cl)cc4)cc3)cc2)CC1`, 225 to 226 °C.
Next, `COc1cc(-c2nc3sccn3c2-c2ccnc(N[C@@H]3CCCN(S(=O)(=O)c4ccc(Cl)cc4)C3)n2)ccc1F`: 142 to 143 °C; `CCCCCCNC(=O)c1ccccc1I`: 104 to 105 °C; `O=C(c1[nH]c2ccc(F)cc2c1Sc1ccccc1)N1CCCC1`: 184 to 186 °C.
Turning to `Nc1ccccc1Nc1ccc(I)cc1`, the melting point fell in the range of 122 to 123 °C.
To `O=[N+]([O-])c1ccc(O)cc1Br` belongs 130 to 135 °C.
The compound `CC12CC(=O)C3C(CCC4CC(=O)CCC43C)C1CCC2C(=O)CBr` (stereo unspecified) had a melting point of 170 °C.
Consider `O=C(Nc1ccc(S(=O)(=O)C(F)(F)F)cc1Cl)c1cc(S(=O)c2ccc(F)cc2)c2ccccc2c1O` (stereo unspecified), for which the melting point was in the range of 198 to 200 °C.
Next, `CCOC(=O)/C=C/c1ccc(OCCOC)cc1Oc1cc(C(F)(F)F)ccc1[N+](=O)[O-]`: 108 to 110 °C; `Cn1c(-c2cccs2)nnc1S(C)(=O)=O`: 157 to 159 °C.
Next, `NC(=O)N(O)Cc1cccc(C(O)C#Cc2cccnc2)c1` (stereo unspecified): 153 °C.
To `CCCC(=O)Nc1cc(C(Cl)(Cl)Cl)ccn1` belongs 88 to 90 °C.
`C#Cc1cnn2c(C(F)F)cc(-c3ccc(Cl)c(C)c3)nc12`: the melting point worked out at 143 °C.
For `C=CCNc1cc(Cl)nnc1NN`, the melting point is 184 to 186 °C.
`Cc1cc(C)c(/C=C/[C@@H](O)C[C@@H](O)CC(=O)OCOC(=O)C(C)(C)C)c(-c2ccc(F)c(C)c2)c1` yielded a melting point of 97 to 98 °C.
To `O=C(O)c1ccc(C(=O)N2Cc3ccccc3Cc3ccccc32)cc1` belongs 220 to 225 °C; to `CCOC(=O)[C@H](Cc1ccc([N+](=O)[O-])cc1I)NC(=O)OCc1ccccc1`, 85 to 87 °C; to `CC1=NN(c2ccccc2O)C(=O)C1`, 212 to 214 °C.
Next, `CC(C)CC(=O)Nc1cc(-c2ccnc3c(C(=O)c4cccs4)cnn23)cs1`: 234 to 235 °C.
The compound `CCOC(=O)C(Cc1cc(OC)ccc1OC)C(C)=O` (stereo unspecified) displayed a melting point of 68 to 69 °C.
Compound `COC1CCN2C(=O)c3cccc(NC(=O)Nc4ccccn4)c3C2C1` (stereo unspecified) registered a melting point of 166 to 168 °C.
In turn, `COc1cc2c(cc1OC)N(C)C(=O)CNC2=O` yielded a melting point of 260 to 263 °C.
To `Nc1c(C(=O)O)cnn1-c1ccc(Cl)cc1` belongs 169 to 171 °C.
Compound `COc1ccc(CCCC2OC(=O)NC2=O)cc1OCc1nc(-c2ccccc2)oc1C` (stereo unspecified) displayed a melting point of 185 to 187 °C.
For `CCCCSc1nc(=O)n(C(=O)NC)s1`, the melting point turned out to be 102 °C.
To `CC1N=C(c2ccccc2)c2ccccc2NC1=O` (stereo unspecified) belongs 160 to 162 °C; to `COCc1c(C(=O)c2ccccc2)ncc2[nH]c3ccc(Oc4ccc(Br)cn4)cc3c12`, 193 to 194 °C.
As for `CN(C)S(=O)(=O)c1ccc(Cl)c(-c2csc(=Nc3ccccc3)n2C)c1`, the melting point was 195 to 197 °C.
The compound `COc1cc2cn(CC(O)CO)nc2cc1OC` (stereo unspecified) returned a melting point of 113 to 115 °C.
The compound `O=C(O)CNC(=O)c1ccc(OCc2ccccc2)cc1OCc1ccccc1` had a melting point of 168 to 169 °C.
To `CNCc1cnc(Nc2n[nH]c3ccc(-c4ncccc4Cl)cc23)s1` belongs 200 to 201 °C; to `CC(=O)c1cn(C)cc(-c2cccc(Br)c2)c1=O`, 192 to 194 °C.
Regarding `COc1ccccc1-n1c(=O)[nH]c2c(C(N)=O)nc(-c3ccc4[nH]c(SC)nc4c3)nc21`, the melting point was in the range of 244 to 245 °C.
To `COCC(=O)C1CCC2C3CCC4CC(O)CCC4(C)C3C(=O)CC12C` (stereo unspecified) belongs 144 to 146 °C; to `O=c1nc(-c2cccc(S(=O)(=O)Cc3ccccc3)n2)sc2ccccc12`, 217 to 218 °C.
To `CSc1ncc(Oc2cccnc2)c(=O)[nH]1` belongs 205 to 208 °C.

As a reminder, the melting point is the temperature of the solid-liquid transition.
